# Measured values: US8865887B2, “Method for synthesizing calixarene and/or cyclodextrin copolymers, terpolymers and tetrapolymers, and uses thereof” (priority 2009, dated 2014)
# Read-outs that look alike come from different tables or passages of the source.
# Assays:
# [1] = Protocol: NIM is used to treat extra-articular and articular inflammatory forms. […] Phase solubility study was carried out according to the method described by Higuchi to study the influence of the complexation of different cyclodextrins on the solubility of NIM. Native cyclodextrins, modified cyclodextrins, cyclodextrin copolymers and cyclodextrin tetrapolymers were used. The cyclodextrin tetrapolymer, based on 35% of alpha-cyclodextrin, 35% beta-cyclodextrin and 30% gamma-cyclodextrin, is synthesized by direct melt polycondensation according to the example 1 and the ratio cyclodextrin/citric acid is 1/3.
# Phase Solubility Method: Higuchi's Method
# Suspensions were shaken at a temperature of 37° C. on a rotary flask shaker for 7 days and supernatants were filtered through polycarbonate membrane (0.45 μm pore size).
# [2] = native cyclodextrins; cited from earlier work
Kc [1],[Nimésulid] max. ([1]; 7 days),Compound,[Nimésulid] max. [1],solubility in water [2]
0.473 mM⁻¹,0.09249 mg/mL,"OC[C@H]1O[C@@H]2O[C@H]3[C@H](O)[C@@H](O)[C@@H](O[C@H]4[C@H](O)[C@@H](O)[C@@H](O[C@H]5[C@H](O)[C@@H](O)[C@@H](O[C@H]6[C@H](O)[C@@H](O)[C@@H](O[C@H]7[C@H](O)[C@@H](O)[C@@H](O[C@H]8[C@H](O)[C@@H](O)[C@@H](O[C@H]1[C@H](O)[C@H]2O)O[C@@H]8CO)O[C@@H]7CO)O[C@@H]6CO)O[C@@H]5CO)O[C@@H]4CO)O[C@@H]3CO [beta-CD, β-cyclodextrin]",,
0.0646 mM⁻¹,,"OC[C@H]1O[C@@H]2O[C@H]3[C@H](O)[C@@H](O)[C@@H](O[C@H]4[C@H](O)[C@@H](O)[C@@H](O[C@H]5[C@H](O)[C@@H](O)[C@@H](O[C@H]6[C@H](O)[C@@H](O)[C@@H](O[C@H]7[C@H](O)[C@@H](O)[C@@H](O[C@H]8[C@H](O)[C@@H](O)[C@@H](O[C@H]9[C@H](O)[C@@H](O)[C@@H](O[C@H]1[C@H](O)[C@H]2O)O[C@@H]9CO)O[C@@H]8CO)O[C@@H]7CO)O[C@@H]6CO)O[C@@H]5CO)O[C@@H]4CO)O[C@@H]3CO [gamma-CD, γ-cyclodextrin]",0.1449 mg/mL,236 mg/mL

Compound,Kc [1],[Nimésulid] max. ([1]; 7 days),[Nimésulid] max. [1],solubility in water [2]
"OC[C@H]1O[C@@H]2O[C@H]3[C@H](O)[C@@H](O)[C@@H](O[C@H]4[C@H](O)[C@@H](O)[C@@H](O[C@H]5[C@H](O)[C@@H](O)[C@@H](O[C@H]6[C@H](O)[C@@H](O)[C@@H](O[C@H]7[C@H](O)[C@@H](O)[C@@H](O[C@H]1[C@H](O)[C@H]2O)O[C@@H]7CO)O[C@@H]6CO)O[C@@H]5CO)O[C@@H]4CO)O[C@@H]3CO [alpha-CD, α-cyclodextrin]",0.045 mM⁻¹,,0.07708 mg/mL,127 mg/mL
